How the values were obtained:
[1] = system: E2-binding sites at the URR region; assay: Chromatin immunoprecipitation (ChIP) of E2 viral protein at the E2-binding sites of the URR; assay type: cell-based; settings: after induced hypomethylation of the E2-binding sites
Source text: (§1) The described HPV16 DNA methylomes also reflect the proposed expression patterns of the virus in cervical tumorigenesis, characterized by a significant overexpression of E6 and E7 in the carcinomas. […] This event is particularly observed for the E1/E2 region. The protein E2 is an inhibitor of cell proliferation by regulating the viral URR, repressing the E6 and E7 oncoproteins and ultimately causing cell cycle arrest at G2 (Frattini 1997 EMBO J). Thus, the genomic loss of E2 could contribute to the progression of the disease. […] We observe instead methylation of the E2-binding sites at the URR region that are associated with high level of expression of the oncoproteins E6 and E7. Most important, we show by chromatin immunoprecipitation (ChIP) that the E2 viral protein cannot bind to the methylated E2-binding sites at the URR region, and thus leads to E6 and E7 overexpression.

E6 and E7 = assay: Expression of HPV-16 E6 and E7 oncoproteins (Western blotting); assay type: cell-based, HPV16; settings: after induced hypomethylation of the E2-binding sites
Source text: The detection of the expression of viral oncogenic proteins was realized by Western blotting technique using commercially available antibodies, raised against E6 and E7.
as §1

HPV16 genome = assay: DNA methylation of the HPV16 genome (bisulfite genomic sequencing); assay type: cell-based
Source text: To determine the methylation pattern of all […] genes, Bisulfite Genomic Sequencing and Methylation-specific PCR (MSP) were used. Essentially, both detection methods use the C to T conversion by bisulfite when the cytosine is not methylated. The Primers used are described in Table 1 (Bisulfite genomic sequencing—SEQ ID NOs 1 to 42) and Table 2 (Methylation-specific PCR—SEQ ID NOs 43 to 46).
Thus, the viral genome is methylated by the host human cellular DNMTs. Because the integration of HPV16 in the human genome occurs in most cervical tumors and a significant proportion of premalignant lesions, we can consider that human DNMTs might recognize these sequences as “foreign” DNA that needs to be methylated. Indeed in our study, we have confirmed by FISH analyses that the HPV16 genome is integrated in the host cell DNA in CaSki and SiHa.
The described HPV16 DNA methylomes also reflect the proposed expression patterns of the virus in cervical tumorigenesis, characterized by a significant overexpression of E6 and E7 in the carcinomas. […] This event is particularly observed for the E1/E2 region. The protein E2 is an inhibitor of cell proliferation by regulating the viral URR, repressing the E6 and E7 oncoproteins and ultimately causing cell cycle arrest at G2 (Frattini 1997 EMBO J). Thus, the genomic loss of E2 could contribute to the progression of the disease. […]

`Nc1ncn([C@H]2C[C@H](O)[C@@H](CO)O2)c(=O)n1` [5-aza-2′-deoxycytidine] was tested, and the “recruitment of E2 to its URR binding sites” value [1] was “recruitment of E2 to its URR binding sites”, the “E6 and E7 expression” value (E6 and E7) was “marked reduction” and the “methylation of the E2-binding sites at the URR region” value (HPV16 genome) was “hypomethylation events”.

Source: patent US20100285443A1, “Diagnostic Methods for Diseases Caused by a HPV Infection Comprising Determining the Methylation Status of the HPV Genome” (OncoMethylome Sciences SA, priority 2006, published 2010)
